The series is described as follows: Entrapment efficiency of small molecules in L-His crystals (HPLC of supernatant). It counts as physicochemical. The note with it: within L-His crystals; determined by HPLC. Here is the method: A 30 mg/mL solution of L-His (>99%, Sigma-Aldrich) was prepared by dissolving L-His powder in milli-Q water using a vortex mixer at ambient temperature in a Corning® 15 mL centrifuge tube with a closed cap. Then 500 μL of the aqueous solution of L-His and 500 μL of 200 proof ethanol (KOPTEC, PA, US) was added to 200 μL of the small molecule solution (2 mg/mL). The small molecules used in this study were Nile red (>98%, Sigma-Aldrich), pyrene (>98%, Sigma-Aldrich), β-carotene (>97%, Sigma-Aldrich), and doxorubicin HCl (DOX, >98%, Fluka, Mexico City, Mexico). The solution was vortexed for 15 seconds and kept static at ambient temperature. After 3 hours, crystals were collected and washed with ethanol to remove the free small molecules from the surface of the crystals and the supernatant was collected to measure the concentration of non-entrapped small molecules using HPLC. […] Each individual sample of small molecules was quantified based on an optimized method reported in the literature for β-carotene (Etzbach et al., “Characterization of Carotenoid Profiles in Goldenberry (Physalis peruviana L.) Fruits at Various Ripening Stages and in Different Plant Tissues by HPLC-DAD-APCI-MS^n,” Food Chem. 245:508-517 (2018), which is hereby incorporated by reference in its entirety), Nile red (Wu et al., “Drug Delivery to the Skin from Sub-Micron Polymeric Particle Formulations: Influence of Particle Size and Polymer Hydrophobicity,” Pharm Res. 26(8):1995-2001 (2009), which is hereby incorporated by reference in its entirety), pyrene (Jia et al., “Effect of Root Exudates on the Mobility of Pyrene in Mangrove Sediment-Water System,” Catena 162:396-401 (2017), which is hereby incorporated by reference in its entirety), and DOX (Chi et al., “Redox-Sensitive and Hyaluronic Acid Functionalized Liposomes for Cytoplasmic Drug Delivery to Osteosarcoma in Animal Models,” J. Control Release 261:113-125 (2017), which is hereby incorporated by reference in its entirety). […]
`CCN(CC)c1ccc2nc3c4ccccc4c(=O)cc-3oc2c1` [Nile red] returned an Entrapment efficiency of 62%.

`c1cc2ccc3cccc4ccc(c1)c2c34` [pyrene]: the Entrapment efficiency is listed as 87%.

On to `CC1=C(/C=C/C(C)=C/C=C/C(C)=C/C=C/C=C(C)/C=C/C=C(C)/C=C/C2=C(C)CCCC2(C)C)C(C)(C)CCC1` [β-carotene], for which the Entrapment efficiency was approximately 96%.

For the origin of these results see patent publication US20210315826A1, “NATURAL FLUORESCENT POLYDEDRAL AMINO ACID CRYSTALS FOR EFFICIENT ENTRAPMENT AND SYSTEMIC DELIVERY OF HYDROPHOBIC SMALL MOLECULES” (CORNELL UNIVERSITY, priority 2018, published 2021).
